Experimental data reported in PubChem BioAssay AID248 (DTP/NCI, 2004).
“And” between values parts separate entries of the source, which are not always exact repeats. Equal entries are not always repeated. Toxic doses and inconclusive results are not listed. Cut-off read from the data, not from the text of the source: active = T/C of 150% or more; inactive = T/C below 125%. Square brackets hold non-standard residues; d marks the D form. Peptide text beside a SMILES is read from it. * marks the point of attachment. ξ: configuration not given here. Cbz = O=C(OCc1ccccc1)*; OBn = c1ccc(CO*)cc1; ξP = O=C(O)C1CCCN1

Test system: L1210 leukemia ip in BDF1 mice, survival T/C
Assay: NCI In Vivo Anticancer Drug Screen. Data for tumor model L1210 Leukemia (intraperitoneal) in B6D2F1 (BDF1) mice
Conditions: endpoint: mean survival time, higher = longer survival
In short: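 In this screen, tumor-bearing mice given compound are compared to those given vehicle, and their survival values are reported as a treated-to-control quotient.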

[1] = dose: 100.0 mg/kg/injection, schedule: Q01DX001 (ip), vehicle: saline
[2] = dose: 100.0 mg/kg/injection, schedule: Q04DX003 (ip), vehicle: saline
[3] = dose: 200.0 mg/kg/injection, schedule: Q01DX001 (ip), vehicle: saline
[4] = dose: 25.0 mg/kg/injection, schedule: Q04DX003 (ip), vehicle: saline
[5] = dose: 50.0 mg/kg/injection, schedule: Q04DX003 (ip), vehicle: saline
[6] = dose: 100.0 mg/kg/injection, schedule: Q01DX009 (ip), vehicle: saline
[7] = dose: 5.0 mg/kg/injection, schedule: Q04DX003 (ip), vehicle: saline with Tween-80
[8] = dose: 10.0 mg/kg/injection, schedule: Q04DX003 (ip), vehicle: saline with Tween-80
[9] = dose: 100.0 mg/kg/injection, schedule: Q04DX003 (ip), vehicle: Klucel (hydroxypropylcellulose) (HPC)
[10] = dose: 200.0 mg/kg/injection, schedule: Q04DX003 (ip), vehicle: Klucel (hydroxypropylcellulose) (HPC)
[11] = dose: 400.0 mg/kg/injection, schedule: Q04DX003 (ip), vehicle: Klucel (hydroxypropylcellulose) (HPC)
[12] = dose: 50.0 mg/kg/injection, schedule: Q01DX009 (ip), vehicle: saline with Tween-80
[13] = dose: 100.0 mg/kg/injection, schedule: Q04DX003 (ip), vehicle: saline with Tween-80
[14] = dose: 200.0 mg/kg/injection, schedule: Q04DX003 (ip), vehicle: saline with Tween-80
[15] = dose: 400.0 mg/kg/injection, schedule: Q04DX003 (ip), vehicle: saline with Tween-80

Measured: T/C

O=S(=O)(c1ccccc1)C1CC1c1ccccc1 (centres undefined)
inactive: dose: 50.0 mg/kg/injection, schedule: Q01DX009 (ip), vehicle: acetone 95 % of control | [1] 94 % of control | dose: 100.0 mg/kg/injection, schedule: Q01DX009 (ip), vehicle: acetone 93 % of control | [2] 98 % of control | [3] 102 % of control | dose: 200.0 mg/kg/injection, schedule: Q01DX009 (ip), vehicle: acetone 97 % of control | dose: 200.0 mg/kg/injection, schedule: Q04DX003 (ip), vehicle: saline 96 % of control | dose: 400.0 mg/kg/injection, schedule: Q01DX001 (ip), vehicle: saline 102 % of control | dose: 400.0 mg/kg/injection, schedule: Q04DX003 (ip), vehicle: saline 98 % of control

CCCCCCN
inactive: dose: 25.0 mg/kg/injection, schedule: Q01DX001 (ip), vehicle: saline 97 % of control | dose: 25.0 mg/kg/injection, schedule: Q01DX009 (ip), vehicle: saline 93 % of control and 105 % of control | dose: 25.0 mg/kg/injection, schedule: Q04DX002 (ip), vehicle: saline 97 % of control and 100 % of control | [4] 103 % of control | dose: 50.0 mg/kg/injection, schedule: Q01DX001 (ip), vehicle: saline 111 % of control | dose: 50.0 mg/kg/injection, schedule: Q01DX009 (ip), vehicle: saline 101 % of control and 104 % of control | dose: 50.0 mg/kg/injection, schedule: Q04DX002 (ip), vehicle: saline 97 % of control and 103 % of control | [5] 114 % of control | [1] 101 % of control | [6] 102 % of control | [2] 110 % of control

CCOC(=O)/C=C/c1c(Cl)nc2ccccn2c1=O
inactive: dose: 100.0 mg/kg/injection, schedule: Q01DX001 (ip), vehicle: saline with Tween-80 96 % of control | [6] 90 % of control | dose: 200.0 mg/kg/injection, schedule: Q01DX001 (ip), vehicle: saline with Tween-80 94 % of control | dose: 200.0 mg/kg/injection, schedule: Q01DX009 (ip), vehicle: saline 90 % of control | dose: 400.0 mg/kg/injection, schedule: Q01DX001 (ip), vehicle: saline with Tween-80 92 % of control | dose: 400.0 mg/kg/injection, schedule: Q01DX009 (ip), vehicle: saline 95 % of control

CCC[CH2][Sn]([Cl])([Cl])[CH2]CCC
inactive: dose: 2.5 mg/kg/injection, schedule: Q01DX009 (ip), vehicle: saline with Tween-80 100 % of control | dose: 5.0 mg/kg/injection, schedule: Q01DX009 (ip), vehicle: saline with Tween-80 95 % of control | [7] 104 % of control | dose: 10.0 mg/kg/injection, schedule: Q01DX009 (ip), vehicle: saline with Tween-80 95 % of control | [8] 101 % of control | dose: 20.0 mg/kg/injection, schedule: Q04DX003 (ip), vehicle: saline with Tween-80 119 % of control

O=C(CNC(=O)OCc1ccccc1)NCC(=O)N1CCCC1C(=O)OCc1ccccc1 (stereo not drawn) (Cbz-Gly-Gly-[ξP]-OBn)
inactive: [9] 101 % of control | [10] 103 % of control | [11] 100 % of control

CCCCCOC(=O)c1ccccc1C(=O)OCCCCC
inactive: dose: 50.0 mg/kg/injection, schedule: Q01DX001 (ip), vehicle: Klucel (hydroxypropylcellulose) (HPC) 103 % of control | dose: 100.0 mg/kg/injection, schedule: Q01DX001 (ip), vehicle: Klucel (hydroxypropylcellulose) (HPC) 110 % of control | dose: 200.0 mg/kg/injection, schedule: Q01DX001 (ip), vehicle: Klucel (hydroxypropylcellulose) (HPC) 104 % of control

CC1(c2cccnc2)OCCO1
inactive: dose: 75.0 mg/kg/injection, schedule: Q01DX001 (ip), vehicle: saline 97 % of control | dose: 150.0 mg/kg/injection, schedule: Q01DX001 (ip), vehicle: saline 98 % of control | dose: 300.0 mg/kg/injection, schedule: Q01DX001 (ip), vehicle: saline 95 % of control

C1=CC([P+](Cc2ccccc2)(c2ccccc2)c2ccccc2)CC1 (centres undefined)
inactive: dose: 6.25 mg/kg/injection, schedule: Q04DX003 (ip), vehicle: saline 95 % of control | dose: 12.5 mg/kg/injection, schedule: Q04DX003 (ip), vehicle: saline 90 % of control | [4] 96 % of control | [5] 93 % of control and 96 % of control

O=c1[nH]c2c(c(=O)[nH]1)CCCCC2
inactive: dose: 100.0 mg/kg/injection, schedule: Q04DX002 (ip), vehicle: Klucel (hydroxypropylcellulose) (HPC) 95 % of control | dose: 200.0 mg/kg/injection, schedule: Q04DX002 (ip), vehicle: Klucel (hydroxypropylcellulose) (HPC) 89 % of control | dose: 400.0 mg/kg/injection, schedule: Q04DX002 (ip), vehicle: Klucel (hydroxypropylcellulose) (HPC) 92 % of control

CC(=O)N(CCN(C)C)Cc1ccccc1
inactive: [1] 98 % of control | [3] 98 % of control

CC(CC(=O)O)C(C(=O)O)C(=O)O (centres undefined)
inactive: dose: 25.0 mg/kg/injection, schedule: Q01DX009 (ip), vehicle: water 110 % of control | dose: 50.0 mg/kg/injection, schedule: Q01DX009 (ip), vehicle: water 108 % of control | dose: 100.0 mg/kg/injection, schedule: Q01DX009 (ip), vehicle: water 106 % of control | dose: 200.0 mg/kg/injection, schedule: Q01DX009 (ip), vehicle: water 101 % of control

O=C1[O][Hg][c]2cccc3cccc1c23
inactive: [7] 101 % of control | [8] 95 % of control

Nc1ncnc2c1ncn2C1SC(CO)C2OC21 (centres undefined)
inactive: dose: 25.0 mg/kg/injection, schedule: Q01DX001 (ip), vehicle: carboxymethylcellulose (CMC) 93 % of control | dose: 50.0 mg/kg/injection, schedule: Q01DX001 (ip), vehicle: carboxymethylcellulose (CMC) 96 % of control | dose: 100.0 mg/kg/injection, schedule: Q01DX001 (ip), vehicle: carboxymethylcellulose (CMC) 90 % of control | dose: 200.0 mg/kg/injection, schedule: Q01DX005 (ip), vehicle: saline 94 % of control

Cc1cc(OC(=O)Nc2c(C)cccc2C)cc(C)c1Cl
inactive: dose: 25.0 mg/kg/injection, schedule: Q01DX001 (ip), vehicle: saline with Tween-80 93 % of control | dose: 25.0 mg/kg/injection, schedule: Q01DX009 (ip), vehicle: saline with Tween-80 111 % of control and 89 % of control | dose: 25.0 mg/kg/injection, schedule: Q04DX003 (ip), vehicle: saline with Tween-80 107 % of control | dose: 50.0 mg/kg/injection, schedule: Q01DX001 (ip), vehicle: saline with Tween-80 88 % of control | [12] 100 % of control and 114 % of control | dose: 50.0 mg/kg/injection, schedule: Q04DX002 (ip), vehicle: saline with Tween-80 94 % of control and 102 % of control | dose: 50.0 mg/kg/injection, schedule: Q04DX003 (ip), vehicle: saline with Tween-80 93 % of control | [13] 91 % of control | dose: 200.0 mg/kg/injection, schedule: Q01DX009 (ip), vehicle: saline with Tween-80 93 % of control | [14] 92 % of control | dose: 400.0 mg/kg/injection, schedule: Q01DX009 (ip), vehicle: saline with Tween-80 93 % of control | [15] 103 % of control

Oc1c(Br)ccc2c(O)c(Br)ccc12
inactive: [13] 87 % of control | dose: 118.0 mg/kg/injection, schedule: Q01DX009 (ip), vehicle: saline with Tween-80 107 % of control | [14] 92 % of control | dose: 235.0 mg/kg/injection, schedule: Q01DX009 (ip), vehicle: saline with Tween-80 103 % of control | [15] 95 % of control | dose: 470.0 mg/kg/injection, schedule: Q01DX009 (ip), vehicle: saline with Tween-80 103 % of control

CC(C)(C)C(O)C1CCC(C(O)C(C)(C)C)S1(=O)=O (centres undefined)
inactive: dose: 50.0 mg/kg/injection, schedule: Q04DX003 (ip), vehicle: Klucel (hydroxypropylcellulose) (HPC) 100 % of control | [9] 104 % of control | [10] 98 % of control | [11] 100 % of control

O=C(O)/C(Cl)=C(/Cl)C(Cl)=C(Cl)Cl
inactive: [12] 97 % of control

CCCCSC1=CC(=O)c2ccccc2C1=O
inactive: dose: 12.5 mg/kg/injection, schedule: Q04DX003 (ip), vehicle: Klucel (hydroxypropylcellulose) (HPC) 104 % of control
